Where a SMILES comes first, the peptide text is derived from it.
Columns and labels:
[1] = test system: COL1A1 promoter; assay: COL1A1 promoter luciferase reporter inhibition assay in LX-2 cells; type: cell-based, human; conditions: for inhibition at 500 µM: Homo sapiens, read-out: Inhibitory Rate (%) of COL1A1 promotor; for relative fluorescence unit (RFU) of COL1A1 promotor: mean ± SD, n = 3, Control 124874.7 ± 10750.9;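 as to all read-outs here: Anti-fibrotic screen: luciferase reporter driven by the COL1A1 promoter in human hepatic stellate LX-2 cells, compounds applied in complete medium in 96-well plates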
Description: A total of 32 target compounds, the lead compound L-Asp, and the positive control epigallocatechin gallate (EGCG), known for its anti-hepatic fibrotic activity [29], were tested for inhibitory effects on COL1A1 promoter activity at a concentration of 0.5 mM.
The LX-2 cells at 90% confluent were transfected with the plasmid of pGL4.17-COL1A1 promoter using Lipofectamine 2000 (Invitrogen, 11668019, Carlsbad, CA, USA) with Opti-MEM serum-free medium (Gibco, 1930104). After culturing for 6 h, the cells were replaced with a complete medium and seeded in 96-well plates for 24 h. The compound to be tested was prepared using a complete medium and added to the 96-well plate. After 24 h, Bright-Glo Luciferase Assay System (Promega, Madison, WI, USA) was used to detect the activity of COL1A1 promoter and the assaying inhibition rate.

[2] = test system: IKKβ-NF-κB signaling pathway; assay: LPS-induced inflammation in LX-2 cells (western blot); type: cell-based, human; conditions: LPS 1 μg/mL, 24 h, 500 μM bands scanned
Description: Inflammation is crucial in the onset and progression of liver fibrosis, and fibrosis can further exacerbate tissue inflammation. […] To assess the anti-inflammatory effects of Compounds 41 and 8a, LX-2 cells were pre-incubated in serum-free medium for 24 h before LPS stimulation, followed by treatment with different concentrations of the compounds in serum-free medium containing 1 μg/mL LPS for another 24 h. Changes in inflammatory cytokine protein levels were analyzed using western blotting.
The IKKβ-NF-κB signaling pathway has been closely linked to the severity of liver fibrosis, with IKKβ serving as the primary catalytic subunit responsible for NF-κB activation. Therefore, this study investigated the NF-κB pathway by measuring IKKβ kinase activity. […] To evaluate the effects of the target compounds on LPS-induced inflammatory cytokines, four concentrations (50, 100, 200 and 500 μmol/L) were tested, and the results were analyzed by grayscale scanning of western blot bands using ImageJ software (version 1.53t), with normalization to GAPDH protein levels.
After the confluence of LX-2 cells reached 90%, the cells were treated with serum-free medium for 24 h. 2 ng/mL TGFβ1 or 1 μg/mL LPS were used in combination with compounds of different concentrations for 24 h. The samples of cells were lysed in RIPA buffer supplemented with protease inhibitor cocktail (Roche) and separated by SDS-PAGE. After the proteins were transferred to the PVDF membrane, 5% skim milk in TBS-T buffer was used to block them at room temperature for 2 h. Specific primary and secondary antibodies were used to detect the target protein. Finally, the blot was visualized using the Tanon 5200 system (Tanon, Shanghai, China) and the protein expression of GAPDH was used as the internal reference.

Row | SMILES | melting point | inhibition at 500 µM ([1]; LX-2 cells, 0.5 mM, 24 h) | relative fluorescence unit (RFU) of COL1A1 promotor ([1]; LX-2 cells) | fold decrease in COL1A1 promoter inhibitory activity relative to 45 ([1]; 0.5 mM, versus 45) | Inhibitory Rate (%) of COL1A1 promotor ([1]; LX-2 cells, 0.5 mM, 24 h) | inhibition of inflammatory factors [2]
1 | CN[C@@H](CCC(=O)O)C(=O)O [Compound 1, Methyl-L-glutamic acid] | 156.1 to 157.5 °C | < 0% | 143674.9 ± 32109.7 RFU |  |  | 
2 | N[C@@H](CC(=O)Nc1nc(CO)cs1)C(=O)O [Compound 4a, N^4-(4-(hydroxymethyl)thiazol-2-yl)-L-asparagine] | 257.8 to 259.4 °C | 14.9 ± 8.45% | 106237.2 ± 10544.5 RFU |  |  | 
3 | N[C@@H](CC(=O)Nc1nccs1)C(=O)O [Compound 4b, N^4-(thiazol-2-yl)-L-asparagine] | 268.9 to 271.2 °C | 31.2 ± 14.3% | 85934.6 ± 17864.6 RFU |  |  | 
4 | CNC(=O)C[C@H](N)C(=O)O [Compound 4c, N^4-methyl-L-asparagine] |  | 35.5 ± 18.1% | 80485.7 ± 22615.1 RFU |  |  | 
5 | CCNC(=O)C[C@H](N)C(=O)O [Compound 4d, N^4-ethyl-L-asparagine] |  | 33.1 ± 19% |  |  |  | 
6 | O=C(O)C[C@H](NC(=O)OCC1c2ccccc2-c2ccccc21)C(=O)NCCO [Compound 5, (S)-3-((((9H-fluoren-9-yl)methoxy)carbonyl)amino)-4-((2-hydroxyethyl)amino)-4-oxobutanoic acid] | 113.6 to 115.1 °C | 24 ± 15.4% | 94919.5 ± 19273.7 RFU |  |  | 
7 | N[C@@H](CC(=O)O)C(=O)NCCO [Compound 6, (S)-3-amino-4-((2-hydroxyethyl)amino)-4-oxobutanoic acid] |  | < 0% | 128613.0 ± 57574.1 RFU |  |  | 
8 | Cn1cc(O)c(=O)cc1CC(N)C(=O)O (stereo not drawn) [Compound 20b, 2-amino-3-(5-hydroxy-1-methyl-4-oxo-1,4-dihydropyridin-2-yl)propanoic acid] |  | 24 ± 6.38% | 94881.8 ± 7963.9 RFU |  |  | 
9 | Cc1oc(COC(=O)C[C@H](N)C(=O)O)cc(=O)c1O [Compound 23b, (S)-2-amino-4-((5-hydroxy-6-methyl-4-oxo-4H-pyran-2-yl)methoxy)-4-oxobutanoic acid] |  | 34.6 ± 1.75% | 81660.6 ± 2179.5 RFU |  |  | 
10 | Cc1cc(=O)n2c(CNC(=O)[C@H](N)CCO)csc2n1 [Compound 29, (R)-2-amino-4-hydroxy-N-((7-methyl-5-oxo-5H-thiazolo [3,2-a]pyrimidin-3-yl)methyl)butanamide] |  | 33.2 ± 33.3% | 83406.5 ± 41616.9 RFU |  |  | 
11 | Cc1cc(=O)n2c(COC(=O)C[C@H](N)C(=O)O)csc2n1 [Compound 31, (S)-2-amino-4-((7-methyl-5-oxo-5H-thiazolo [3,2-a]pyrimidin-3-yl)methoxy)-4-oxobutanoic acid] |  | 14.6 ± 3.11% | 106608.6 ± 3888.3 RFU |  |  | 
12 | Cc1cc(=O)n2c(CNc3ccccn3)csc2n1 [Compound 32a, 7-methyl-3-((pyridin-2-ylamino)methyl)-5H-thiazolo [3,2-a]pyrimidin-5-one] |  | 47.7 ± 4.81% | 65321.0 ± 6005.7 RFU |  |  | 
13 | Cc1cc(=O)n2c(CN[C@@H](CC(=O)O)C(=O)O)csc2n1 [Compound 33, ((7-methyl-5-oxo-5H-thiazolo [3,2-a]pyrimidin-3-yl)methyl)-L-aspartic acid] |  | 6.39 ± 7.06% | 116893.2 ± 8812.8 RFU |  |  | 
14 | Cc1cc(=O)n2c(CC(=O)N[C@H]3CCOC3=O)csc2n1 [Compound 34a, (S)-2-(7-methyl-5-oxo-5H-thiazolo [3,2-a]pyrimidin-3-yl)-N-(2-oxotetrahydrofuran-3-yl)acetamide] |  | 15.5 ± 16.6% | 105579.0 ± 20740.0 RFU |  |  | 
15 | Cc1cc(=O)n2c(CC(=O)N[C@@H](CC(=O)O)C(=O)O)csc2n1 [Compound 35, (2-(7-methyl-5-oxo-5H-thiazolo [3,2-a]pyrimidin-3-yl)acetyl)-L-aspartic acid] | 253.1 to 256.8 °C | < 0% | 161478.3 ± 67708.9 RFU |  |  | 
16 | N[C@@H](CC(=O)OCc1cc(=O)n2ccsc2n1)C(=O)O [Compound 37, (S)-2-amino-4-oxo-4-((5-oxo-5H-thiazolo [3,2-a]pyrimidin-7-yl)methoxy)butanoic acid] |  | 8.46 ± 8.16% | 114307.8 ± 10191.8 RFU |  |  | 
17 | COC(=O)[C@H]1C[C@H](Oc2cc(C)nn3c(-c4ccc(OC)c(OC)c4)cnc23)CN1 [Compound 43, Methyl (2R,4S)-4-((3-(3,4-dimethoxyphenyl)-6-methylimidazo [1,2-b]pyridazin-8-yl)oxy)pyrrolidine-2-carboxylate] | 127.2 to 129.6 °C | 38.2 ± 3.28% | 77132.5 ± 4101.8 RFU | 1.8 fold |  | 
18 | O=C(O[C@@H]1Cc2c(O)cc(O)cc2O[C@@H]1c1cc(O)c(O)c(O)c1)c1cc(O)c(O)c(O)c1 [EGCG, epigallocatechin gallate, reference compound] |  |  | 79340.1 ± 5808.7 RFU |  | 36.46 ± 4.64% | 
19 | N[C@@H](CC(=O)O)C(=O)O [L-Asp, L-aspartic acid, reference compound] |  | 11.3 ± 0.35% | 110724.3 ± 444.6 RFU |  |  | moderate inhibition

Continued, in another order:

Row | melting point | SMILES | inhibition at 500 µM ([1]; LX-2 cells, 0.5 mM, 24 h) | relative fluorescence unit (RFU) of COL1A1 promotor ([1]; LX-2 cells) | fold decrease in COL1A1 promoter inhibitory activity relative to 45 ([1]; 0.5 mM, versus 45) | Inhibitory Rate (%) of COL1A1 promotor ([1]; LX-2 cells, 0.5 mM, 24 h) | inhibition of inflammatory factors [2]
20 | 195.3 to 198.6 °C | NC(=O)C[C@H](N)C(=O)N[C@@H](CC(=O)O)C(=O)O [Compound 8b, L-asparaginyl-L-aspartic acid] (H-Asn-Asp-OH) | 23.8 ± 4.57% | 95132.4 ± 5710.5 RFU |  |  | 
21 | 228.1 to 229.6 °C | Cc1ccc(COC(=O)C[C@H](N)C(=O)O)cc1 [Compound 11a, (S)-2-amino-4-((4-methylbenzyl)oxy)-4-oxobutanoic acid] | 11.4 ± 18.5% | 110620.0 ± 23148.4 RFU |  |  | 
22 | 227.6 to 230.2 °C | N[C@@H](CC(=O)OCc1ccc(F)cc1)C(=O)O [Compound 11b, (S)-2-amino-4-((4-fluorobenzyl)oxy)-4-oxobutanoic acid] | < 0% | 130725.3 ± 8310.2 RFU |  |  | 
23 | 207.2 to 209.5 °C | N[C@@H](CC(=O)OCc1ccc([N+](=O)[O-])cc1)C(=O)O [Compound 11c, (S)-2-amino-4-((4-nitrobenzyl)oxy)-4-oxobutanoic acid] | < 0% | 158140.3 ± 50740.1 RFU |  |  | 
24 | 205.1 to 207.3 °C | Cc1ccc(COC(=O)[C@@H](N)CC(=O)O)cc1 [Compound 11d, (S)-3-amino-4-((4-methylbenzyl)oxy)-4-oxobutanoic acid] | 19.9 ± 4.99% | 100087.5 ± 6229.2 RFU |  |  | 
25 | 197.6 to 199.5 °C | N[C@@H](CC(=O)O)C(=O)OCc1ccc(F)cc1 [Compound 11e, (S)-3-amino-4-((4-fluorobenzyl)oxy)-4-oxobutanoic acid] | 27.9 ± 5.81% | 89998.6 ± 7257.5 RFU |  |  | 
26 | 190.6 to 192.1 °C | N[C@@H](CC(=O)O)C(=O)OCc1ccc([N+](=O)[O-])cc1 [Compound 11f, (S)-3-amino-4-((4-nitrobenzyl)oxy)-4-oxobutanoic acid] | 20.6 ± 14.3% | 99123.6 ± 17860.3 RFU |  |  | 
27 | 217.1 to 219.8 °C | NC(Cc1cc(=O)c(O)co1)C(=O)O (stereo not drawn) [Compound 20a, 2-amino-3-(5-hydroxy-4-oxo-4H-pyran-2-yl)propanoic acid] | 17.9 ± 10.1% | 102508.7 ± 12580.9 RFU |  |  | 
28 | 156.3 to 158.7 °C | N[C@@H](CC(=O)OCc1cc(=O)c(O)co1)C(=O)O [Compound 23a, (S)-2-amino-4-((5-hydroxy-4-oxo-4H-pyran-2-yl)methoxy)-4-oxobutanoic acid] | 27.9 ± 1.16% | 90057.5 ± 1452.6 RFU |  |  | 
29 | 218 to 220.2 °C | Cc1cc(=O)n2c(CNC(=O)c3cccc(F)c3F)csc2n1 [Compound 28a, 2,3-difluoro-N-((7-methyl-5-oxo-5H-thiazolo [3,2-a]pyrimidin-3-yl)methyl)benzamide] | 43.9 ± 6.36% | 70040.5 ± 7951.7 RFU |  |  | 

Reference: PMC11477965, “Synthesis and Anti-Liver Fibrosis Research of Aspartic Acid Derivatives” (Molecules, 2024)
